From patent US20130331405A1, “PIK3CA Mutation Status and SASH1 Expression Predicts Synergy Between Lapatinib and an AKT Inhibitor in HER2 Positive Breast Cancer” (THE REGENTS OF THE UNIVERSITY OF CALIFORNIA, priority 2012, published 2013)

Key:
[1] = test system: HCC202; assay: Growth inhibition (CTG assay), HCC202; format: cell-based; details: Homo sapiens, PIK3CA p.E545K, average GI50, CTG assay
Description: (§1) We used a panel of breast cancer cell lines that represent the heterogeneity seen in breast tumors for drug screening. Fixed numbers of cells were plated in 96 well plates. Using a Biotek liquid handling robot, cells were treated with nine two-fold dilutions of an AKT inhibitor (GSK690693), a second drug (lapatinib), or a combination of the two. Response was measured using CTG assay as % Growth Inhibition. 50% Growth Inhibition (GI50) was calculated. Synergistic interactions between drugs was calculated by standard median-effect method using % inhibition (inhibitory concentration) readings and reported as a combination index using the Synergy module in R.

[2] = test system: AU565; assay: Growth inhibition (CTG assay), AU565; format: cell-based; details: Homo sapiens, PIK3CA wt, PTEN wt, average GI50, CTG assay
Description: as §1

[3] = test system: MDAMB361; assay: Growth inhibition (CTG assay), MDAMB361; format: cell-based; details: Homo sapiens, MDA-MB-361, PIK3CA wt/p.E545K, average GI50, CTG assay
Description: as §1

[4] = test system: UACC812; assay: Growth inhibition (CTG assay), UACC812; format: cell-based; details: Homo sapiens, UACC-812, PIK3CA wt, PTEN wt, average GI50, CTG assay
Description: as §1

[5] = test system: MDAMB175; assay: Growth inhibition (CTG assay), MDAMB175; format: cell-based; details: Homo sapiens, PIK3CA wt, PTEN wt, not HER2 amplified, average GI50, CTG assay
Description: as §1

[6] = test system: BT474; assay: Growth inhibition (CTG assay), BT474; format: cell-based; details: Homo sapiens, BT-474, PIK3CA wt/p.K111N, average GI50, CTG assay
Description: as §1, with “50% Growth Inhibition (GI50) was calculated.” left out

[7] = test system: SKBR3; assay: Growth inhibition (CTG assay), SKBR3; format: cell-based; details: Homo sapiens, SK-BR-3, PIK3CA wt, PTEN wt, average GI50, CTG assay
Description: as §1

[8] = test system: SUM225; assay: Growth inhibition (CTG assay), SUM225; format: cell-based; details: Homo sapiens, PIK3CA wt, average GI50, CTG assay
Description: as §1

[9] = test system: HCC1569; assay: Growth inhibition (CTG assay), HCC1569; format: cell-based; details: Homo sapiens, PIK3CA wt, PTEN p.K267fs*9, average GI50, CTG assay
Description: as §1

[10] = test system: HCC1954; assay: Growth inhibition (CTG assay), HCC1954; format: cell-based; details: Homo sapiens, PIK3CA p.H1047R, average GI50, CTG assay
Description: as §1

[11] = test system: SUM190PT; assay: Growth inhibition (CTG assay), SUM190PT; format: cell-based; details: Homo sapiens, PIK3CA p.H1047R, average GI50, CTG assay
Description: as §1

[12] = test system: MDAMB453; assay: Growth inhibition (CTG assay), MDAMB453; format: cell-based; details: Homo sapiens, MDA-MB-453, PIK3CA p.H1047R, PTEN wt/p.E307K, average GI50, CTG assay
Description: as §1

[13] = test system: Akt; details: ATP-competitive; three Akt isoforms; cited from earlier work

| Compound | GI50 [1] [nM] | GI50 [2] [nM] | GI50 [3] [nM] | GI50 [4] [nM] | GI50 [5] [nM] | GI50 [6] [nM] | GI50 [7] [nM] | GI50 [8] [nM] | GI50 [9] [nM] | GI50 [10] [nM] | GI50 [11] [nM] | GI50 [12] [nM] | pan-Akt kinase inhibition potency [13] |
| --- | --- | --- | --- | --- | --- | --- | --- | --- | --- | --- | --- | --- | --- |
| CS(=O)(=O)CCNCc1ccc(-c2ccc3ncnc(Nc4ccc(OCc5cccc(F)c5)c(Cl)c4)c3c2)o1 [Lap, lapatinib] | 68 | 87 | 106 | 106 | 114 | 116 | 163 | 245 | 420 | 673 | 806 | 922 | – |
| CCn1c(-c2nonc2N)nc2c(C#CC(C)(C)O)ncc(OC[C@H]3CCCNC3)c21 [AKT] | 15 | 109 | 63 | 41 | 27 | 89 | 54 | 293 | 122 | 119 | 229 | 109 | low-nanomolar |
